Results on 34 compounds are retold here after the Kinase Knowledgebase extract (Sharma et al. 2016).

Structures are written as SMILES. pKi: −log10 of the molar value.

The target of this test is CDK2 (human) (UniProt P24941). The experiment in a line: Enzyme Assay.
`Cc1cc(Nc2nc(-c3cc4c(=O)[nH][nH]c4cc3C(F)(F)F)nc3cnoc23)n[nH]1` gave a pKi greater than 6.00.

Turning to `O=c1[nH][nH]c2cc(OCCC(Nc3ccccn3)c3ccccc3)ccc12` (centres undefined), the pKi is greater than 6.00.

`O=c1[nH][nH]c2cc(OC(CCNc3cc(C4CC4)[nH]n3)Cc3ccccc3)ccc12` (centres undefined) had a pKi greater than 6.00.

As for `O=C(CCCc1ccc2c(=O)[nH][nH]c2c1)Nc1nccnn1`, the pKi is greater than 6.00.

In turn, `Cc1cc(Nc2cc(COc3ccc4c(=O)[nH][nH]c4c3)nc3c2CCCCC3)n[nH]1` gave a pKi greater than 6.00.

In turn, `Cc1cc(Nc2nc(Nc3ccc4c(=O)[nH][nH]c4c3)nc3c2CN(Cc2ccccc2)CC3)n[nH]1` showed a pKi greater than 6.00.

For the compound `Cc1cnc(NC(=O)CC(=O)Nc2ccc3c(=O)[nH][nH]c3c2)s1`, the pKi was greater than 6.00.

As for `O=c1[nH][nH]c2ccc(C3CCCC(Nc4cc(C5CC5)[nH]n4)C3)cc12` (centres undefined), the pKi is greater than 6.00.

Turning to `O=c1[nH][nH]c2ccc(C3COCC(Nc4cc(C5CC5)[nH]n4)C3)cc12` (centres undefined), the pKi was greater than 6.00.

For `O=c1[nH][nH]c2cc(Oc3nc(Nc4cc(C5CC5)[nH]n4)cc(N4CCOCC4)n3)ccc12`, the pKi is greater than 6.00.

Consider `Cc1cc(Nc2cc(-c3ccccc3)[nH]n2)nc(-c2ccc3[nH][nH]c(=O)c3c2)n1`, for which the pKi is greater than 6.00.

Take `CN(C)CCOCc1cc(Nc2n[nH]c3ccccc23)nc(Sc2ccc3c(=O)[nH][nH]c3c2)n1`: the pKi was greater than 6.00.

In turn, `O=c1[nH][nH]c2cc(Oc3cc(Nc4cc(C5CC5)[nH]n4)ccn3)ccc12` gave a pKi greater than 6.00.

As to `O=c1[nH][nH]c2cc(SCCC(Nc3ccccn3)c3ccccc3)ccc12` (centres undefined), the pKi is greater than 6.00.

Turning to `O=c1[nH][nH]c2cc(C(F)(F)F)c(-c3cc4cccnc4c(Nc4nc[nH]n4)n3)cc12`, the pKi is greater than 6.00.

Turning to `Cc1cc(Nc2cc(-c3ccccc3C)nc(Oc3ccc4c(=O)[nH][nH]c4c3)n2)n[nH]1`, the pKi is greater than 6.00.

In the case of `O=c1[nH][nH]c2cc(Nc3cc(Nc4n[nH]c5ccccc45)ccn3)ccc12`, the negative logarithm of the Ki (pKi) is greater than 6.00.

`Cc1cnc(NOCCSc2ccc3c(=O)[nH][nH]c3c2)s1` gave a pKi greater than 6.00.

`Cc1ccc2nc(Nc3ccc4c(=O)[nH][nH]c4c3)nc(Nc3cc(C4CC4)[nH]n3)c2n1` had a pKi greater than 6.00.

As for `O=c1[nH][nH]c2cc(Oc3nc(Nc4cc(C5CC5)[nH]n4)c4ccccc4n3)ccc12`, the pKi is greater than 6.00.

`CN(C)CCNC(=O)c1cc(Nc2cc(C3CC3)[nH]n2)nc(Sc2ccc3c(=O)[nH][nH]c3c2)n1` gave a pKi greater than 6.00.

In turn, `CN1CCN(c2cccc3c(Nc4n[nH]c5c(F)cccc45)nc(-c4ccc5[nH][nH]c(=O)c5c4C(F)(F)F)nc23)CC1` had a pKi greater than 6.00.

`O=c1[nH][nH]c2cc(CCCCNc3ccccn3)ccc12` showed a pKi greater than 6.00.

Turning to `O=c1[nH][nH]c2cc(Nc3cccc(Nc4n[nH]c5ccccc45)n3)ccc12`, the pKi is greater than 6.00.

In turn, `Cc1cnc(NC(=O)CC(=O)Oc2ccc3c(=O)[nH][nH]c3c2)s1` had a pKi greater than 6.00.

Take `CC(=O)Nc1cccc(-c2cc(Nc3cc(C)[nH]n3)nc(Oc3ccc4c(=O)[nH][nH]c4c3)n2)c1`: the pKi is greater than 6.00.

In turn, `O=c1[nH][nH]c2cc(NOCCNc3cc(C4CC4)[nH]n3)ccc12` showed a pKi greater than 6.00.

As to `O=c1[nH][nH]c2cc(Nc3cc4ccccc4c(Nc4cc(C5CC5)[nH]n4)n3)ccc12`, the pKi was greater than 6.00.

As to `NC(=O)c1cc(-c2ncnc(Nc3n[nH]c4c3CCC(=O)C4)n2)cc2c(=O)[nH][nH]c12`, the pKi is greater than 6.00.

The compound `Cc1cc(Nc2nc(Sc3ccc4c(=O)[nH][nH]c4c3)nc3cc(NO)ccc23)n[nH]1` gave a pKi greater than 6.00.

Compound `O=c1[nH][nH]c2cc(OCCC(Nc3cc(C4CC4)[nH]n3)c3ccccc3)ccc12` (centres undefined) gave a negative logarithm of the Ki (pKi) greater than 6.00.

On to `O=c1[nH][nH]c2cc(NCCC(Nc3nccnn3)c3ccccc3)ccc12` (centres undefined), for which the pKi is greater than 6.00.

In turn, `O=c1[nH][nH]c2ccc(-c3nc(Nc4n[nH]c5cc(=O)n(-c6ccccc6)nc45)c4ccccc4n3)c(C(F)(F)F)c12` gave a pKi greater than 6.00.

`Cn1cnc(NC2CCC(c3ccc4[nH][nH]c(=O)c4c3)C2)c1` (centres undefined) showed a pKi greater than 6.00.

The term pKi denotes −log10 of the Ki, conventionally taken in molar units.
